Results: patent US5506361A, “Imidazobenzoquinones and composition for preventing or treating hypertension or congestive heart failure containing the same” (TheUpjohn Company, priority 1991, dated 1996)

What was measured:
[1] = biological target: angiotensin II mesenteric artery receptor; assay: In vitro angiotensin II mesenteric artery receptor binding assay; conditions: test 1); 125I-Ang II 0.2 nM, rat mesenteric artery membrane fraction, 22° C., 90 min
Procedure: 1) In vitro angiotensin II mesenteric artery receptor binding assay
According to the method (1) by Gunther et at., a membrane fraction was prepared from mesenteric artery of a male rat, 50 μg protein equivalent thereof and 0.2 nM ^125 I-Ang II as well as various concentrations of test compounds were incubated at 22° C. for 90 min. in 200 μl reaction volume of incubation buffer (50 mM Tris-HCl, 120 mM NaCl, 5 mM MgCl2, 0.25% bovine serum albumin, pH7.2). This was cooled, and the reaction was stopped by addition of ice-cooled phosphate buffer (10 mM phosphate, 140 mM NaCl, pH7.4, hereinafter referred to as PBS), and then the reaction solution was filtered through a glass fiber filter (Whatman CF/B), the filter was washed, dried, and then the radioactivity of captured ^125 I-angiotensin II which bound to the receptor was measured by γ-counter. Non-specific binding mount was obtained from the reaction in the presence of 1 μM of unlabeled angiotensin II. The test compound was tested at the concentration of 0.01 to 1 μM, and those that inhibited more than 50% of total specific binding mount at 1 μM was determined as an active compound, and 50% inhibiting concentration (IC50) was obtained [see Gunther, S., Gimbrone, M. A. and Alexander, R. W., Circ. Res., 17:278-286, 1980].

[2] = biological target: adrenal cortex angiotensin II receptor; assay: In vitro adrenal cortex angiotensin II receptor binding assay; conditions: test 2); membrane fraction from adrenal cortex of male rat
Procedure: 2) In vitro adrenal cortex angiotensin II receptor binding assay
According to the method by Capponi et at. (1), angiotensin II receptor binding assay was carried out by preparing a membrane fraction from an adrenal cortex of a male rat and using this as a receptor material in the same manner as in the above-described pharmacological test 1) [see Capponi, A. M. and Catt, K., J. Biol. Chem. 254:5120-5127(1979)].

[3] = system: angiotensin II constriction in isolated rabbit thoracic aorta; assay: Antagonism to angiotensin II constriction in an isolated rabbit thoracic aorta; assay type: cell-based; conditions: test 3); 10^-6 M test compound, 20 min; pA2 = -logKB
Procedure: 3) Antagonism to angiotensin II constriction in an isolated rabbit thoracic aorta
A rectangular strip-like sample of thoracic aorta isolated from an anethetized rabbit was prepared, and this was suspended at 2.0 g of loaded tension in a Magnus tube filled with Krebs-Henseleitoid nutrition solution which was well aerated with 95% O2 -5% CO2, and the constriction tension was measured using an isometric transducer. After the tension of the sample at rest became stable, accumulative administration of angiotensin II was carried out to obtain a concentration-action curve. Thereafter, the sample was washed with the same nutrition solution, and then 10^-6 M test compound was treated for 20 min. to obtain again a concentration-action curve of angiotertsin II. The results were obtained as followed: generated maximum tension at the first accumulative administration of angiotensin II was regarded as 100%, and the 50% effective concentration (ED50) was obtained in the presence or absence of the test compound, and pA2 value was calculated according to the following equations:
pA2 =-logKB KB =C/{(A'/A)-1}
C: concentration of the test compound (M)
A': ED50 in the presence of test compound (M)
A:ED50 in the absence of the test compound (M)

[4] = system: blood pressure increasing by angiotensin II; assay: Antagonism to blood pressure increasing by angiotensin II in a spine destroyed rat; assay type: in vivo, Wistar rat; conditions: Rattus norvegicus; test 4); intravenous; 3 μg/kg angiotensin II i.v.; inhibition of blood pressure increase
Text: 4)Antagonism to blood pressure increasing by angiotensin II in a spine destroyed rat
Wistar rat anesthetized with pentobarbital was fixed at dorsal position, and a cannula for measuring blood pressure was inserted into sinister arteria carotis communis, and a cannula for administration of the test compound into dexter external jugular vein and a cannula for administration of angiotensin II into sinister external jugular vein, arebilateral nervous vagus was cut, and artificial respiration was carried out. A thin bar made of metal was stabbed into spinal column through sininster orbita to destroy spine. Blood pressure was recorded on polygraph via pressure transducer from an arterial cannula. After blood pressure was stable for more than 30 min., 3μg/kg of angiotensin II was administered intravenously four times every 15 min., and every 5 min. before the administration of angiotensin II from the second admininstration onward, a solvent, a lower dose of the test compound, and a higher dose of the test compound were admininstered intravenously in this order to observe the blood pressure increasing response by angiotensin II. ED50 values were calculated from the inhibiting rate when the first blood pressure increase by angiotensin II was regarded as 100%.

`CCCCc1nc2c(n1Cc1ccc(-c3ccccc3C(=O)O)cc1)C(=O)c1ccccc1C2=O` [Compound No. 1, 1-[(2'-Carboxybiphenyl-4-yl)methyl]-2-n-butyl-1H-naphthimidazol-4,9-dione] was tested, and the IC50 [1] was 610 nM, the IC50 [2] was 540 nM and the pA2 [3] was 6.64. For the same compound, the ED50 [4] was 22.6 mg/kg.
`CCCCc1nc2c(n1Cc1ccc(-c3ccccc3C(=O)OC(C)(C)C)cc1)C(=O)c1ccccc1C2=O` [Compound No. 2, 1-[(2'-t-Butoxycarbonylbiphenyl-4-yl)methyl]-2-n-butyl-1H-naphthimidazol-4,9-dione] showed an IC50 [1] of 50 nM, an IC50 [2] of 48 nM and a pA2 [3] of 7.60.
